Data from patent US20250235413A1, “MODIFIED FORMS OF AMBROXOL FOR THERAPEUTIC USE” (Zywie, LLC, priority 2021, published 2025).

Tests used:
[1] = Metabolic stability in human liver microsomes; format: in vitro ADME; settings: human liver microsomes 1 mg/mL protein, 1 μM compound, 37° C., NADPH-regenerating system; for half-life at 1 μM: 0-120 min, read-out: In vitro elimination half-life t1/2; for microsomal CLint at 1 μM: read-out: In vitro intrinsic clearance CLint-microsomes
Method: Study design—Test compounds (ambroxol and deuterated analogs) were dissolved in dimethylsulfoxide (DMSO) to prepare 1 mM stock solutions. The compounds were added to preparations of human liver microsomes (200 μL per incubation at a 1 mg/mL protein concentration) such that the final compound concentration was 1 μM. The samples were incubated at 37° C. in the presence of a reduced nicotinamide adenine dinucleotide phosphate (NADPH)-regenerating system (NADP, 1 mM, pH 7.4; glucose-6-phosphate, 5 mM, pH 7.4; glucose-6-phosphate dehydrogenase, 1 unit/mL)). A positive control (midazolam, 1 μM, 0.1 mg/mL protein) was incubated concurrently to ensure the microsome preparation was performing as expected. Samples were obtained at t=0, 30, 60, and 120 min and quenched by addition of acetonitrile.
Quenched samples were analyzed by liquid chromatography coupled to tandem mass spectrometry detection (LC/MS-MS). The concentration of the test compounds at each time point were converted to percent remaining relative to the concentration of the compound at time t=0 (which serves as the 100% value). All data points were included in data processing. The rate constant of elimination (kel, min^−1) of each test compound was determined from the time course of disappearance of the parent compound based on fitting the experimental data to a single exponential decay formula (At=Aoe^−kelt, where At is the % remaining at time t, Ao is 100%, kel is the elimination rate constant, and t is time). The in vitro half-life (t1/2) was determined from kel based on the formula: t1/2=ln(2)/kel. The rate constant of elimination was also used to calculate the in vitro intrinsic clearance CLint-microsomes (μL/min/mg protein).

[2] = system: male BDF1 mice; assay: Lifespan study in mice fed compound in chow; format: in vivo, mouse; settings: 50 mg/kg daily as chow supplement, vs control (FIG. 3)
Method: Group 1 represents control animals that were not administered ambroxol; and Group 2 represents animals administered 50 mg/kg (body weight) of ambroxol daily as a chow supplement, starting at 2 months of age.
Weaned male BDF1 mice raised from pups, housed 1-4 animals per cage and fed Teklad 7013 NIH-31 rodent chow and water ad libitum, at 2 months of age, are divided into two roughly equal groups of 22-25 animals. One group continues to be fed the Teklad chow as before (control); the other group is switched to Teklad chow formulated with compound 2 at 300 mg per kg of chow. This formulation was designed, based on the average ad libitum chow consumption of an adult male BDF1 mouse, to deliver 50 mg/kg/day (based on body mass) to each mouse in the treated group. Mice are maintained on this diet until they die naturally or until they reach 16 months of age, at which time the experiment ends. During the course of the experiment, all mice are periodically removed from their cages and handled in the course of subjecting them to various sensorimotor, cognitive, and/or behavioral tests.
Group 1 represents control animals that were not administered ambroxol; Group 2 represents animals administered 50 mg/kg of ambroxol daily as a chow supplement, starting at 2 months of age.

[3] = system: mice; assay: Cognitive acuity test (novel place recognition) in mice at 7 months; format: in vivo, mouse
Excerpt: This is a cognitive test to measure short-term working memory, involving recognition of a familiar object found in an unfamiliar place (see Magen et al., Eur J Neurosci 35:870-882, 2012; Magen and Chesselet, J Parkinson's Disease 1:217-227, 2011). A Discrimination Index (DI)=(tnovel−tfamiliar)/(tnovel+tfamiliar) was used to assess the time spent exploring near the object in a novel place (“tnovel”) vs. the total exploration time overall. Discrimination Index scores greater than zero are considered to indicate good place recognition memory.
Three groups of mice, with at least 13 mice in each group, are given a cognitive acuity test at 7 months. The three groups of mice are: “High Dose” Group (150 mg/kg/day of compound 2), “Low Dose” (50 mg/kg/day of compound 2) Group, and a Control Group (no compound 2).
The dosage results are substantially lower than doses previously observed to effectively promote GCase chaperoning activity in mice (e.g., Migdalska-Richards et al., Ann Neurol 80:766-775, 2016).

SMILES | half-life at 1 μM [1] | microsomal CLint at 1 μM [1] | Lifespan ([2]; starting at 2 months of age) | Healthspan (health of surviving animals when sacrificed) [2] | Cognitive acuity, Low Dose Group ([3]; 50 mg/kg/day) | Cognitive acuity, High Dose Group ([3]; 150 mg/kg/day) | Cognitive acuity ([3]; High Dose and Low Dose vs Control (FIG. 4))
Nc1c(Br)cc(Br)cc1CN[C@H]1CC[C@H](O)CC1 [ambroxol, trans-4-((2-amino-3,5-dibromobenzyl)amino)cyclohexanol] | 1.01 h | 11.4 µL/min/mg | able to increase lifespan | healthspan was extended | results in between the Control Group and the “High Dose” Group | best cognitive acuity results | dose-related improvement
[2H]C([2H])(N[C@H]1CC[C@H](O)CC1)c1cc(Br)cc(Br)c1N [ZW-001] | 1.65 h | 7 µL/min/mg |  |  |  |  | 
